This note sets out measurements from patent US8460685B2, “Method of improving the osteoinductivity of calcium phosphate” (Progentix Orthobiology B.V., priority 2005, dated 2013).

Molecules are shown by their SMILES.

In test [1] the test system is dorsal muscles of goats. Kind of test: Osteoinductive potential of TCP ceramic loaded with lithium chloride, intramuscular implantation in goats (histology, histomorphometry). In kind it is in vivo. To be noted: LiCl in TCP; improved osteoinductivity. The method, then:
The osteoinductive potential of TCP ceramic loaded with lithium chloride was tested in a pilot study in muscle of goats. After sterilization (autoclaving at 121° C. for 30 minutes), a volume of 1.0 cc of 1-3 mm ceramic particles (granules) of each TCP-only, TCP with 5 mmol LiCl/100 g, TCP with 15 mmol LiCl/100 g and TCP with 45 mmol LiCl/100 g were implanted in dorsal muscles of 4 goats for 12 weeks (total 4 implants in each of 4 goats).
Twelve weeks after implantation the animals Were sacrificed and the implants were harvested with surrounding tissues and fixed in 1.5% glutaraldehyde in 0.14M cacodylate buffer. The fixed samples were dehydrated in a graded series of aqueous ethanol solutions (70%, 80%, 90%, 96% and 100%×2) and finally embedded in MMA. Non-decalcified sections (10-20 μm) were prepared and stained with methylene blue and basic fuchsin for histological observation and histomorphometrical analysis regarding bone formation.
Histomorphometry was performed on the sections across the middle of the implants with regard to the percentage of the formed bone in the available space.

In test [2] the test system is dorsal muscles of goats. Nature of the test: Osteoinductive potential of sodium fluoride-loaded TCP ceramic, intramuscular implantation in goats (histology, histomorphometry). The following applies: NaF in TCP; improved osteoinductivity. In kind it is in vivo. The method, then: The osteoinductive potential of sodium fluoride-loaded TCP ceramic was tested in a pilot study in muscles of goats. After sterilization (autoclaving at 121° C. for 30 minutes), a volume of 1.0 cc of 1-3 mm ceramic particles (granules) of each TCP-only, TCP with 8 mmol NaF/100 g, TCP with 16 mmol NaF/100 g and TCP with 24 mmol NaF/100 g were implanted in dorsal muscles of 4 goats for 12 weeks (total 4 implants in each of 4 goats).
Twelve weeks after implantation the animals were sacrificed and the implants were harvested with surrounding tissues and fixed in 1.5% glutaraldehyde in 0.14M cacodylate buffer. The fixed samples were dehydrated in a graded series of aqueous ethanol solutions (70%, 80%, 90%, 96% and 100%×2) and finally embedded in methyl methacrylate (MMA). Using standard procedures non-decalcified sections (10-20 μm) were made and stained with methylene blue and basic fuchsin for histological observation and histomorphometrical analysis regarding bone formation.
Histomorphometry was performed on the sections across the middle of the implants and to the percentage of the formed bone in the available space was measured using image analysis.

On to `[Cl-].[Li+]` [LiCl, lithium chloride], for which, in the test on dorsal muscles of goats [1], the “effective amount of trace element in TCP” value is reported as 5-45 mmol LiCl/100 g and the “optimum amount of trace element in TCP” value is given as “around 15 mmol LiCl/100 g TCP”.
On to `[F-].[Na+]` [NaF, sodium fluoride], for which, in the test with dorsal muscles of goats [2], the “effective amount of trace element in TCP” value is 8-24 mmol NaF/100 g and the “optimum amount of trace element in TCP” value was “around 16 mmol NaF/100 g TCP”.
